What was measured:
[1] = Dissolution study of hand-filled capsules in simulated gastric fluid, HPLC; format: physicochemical; conditions: capsule in 500 mL simulated gastric fluid
Description: Commercially available 200 mg Reyataz hard gelatin capsules (lot number 6E3004B) were emptied by hand to create a stockpile of Atazanavir (ATV) commercial powder. This commercially available 200 mg Reyataz capsule contains 200 mg ATV as Atazanavir sulphate plus 178 mg of excipients (crospovidone, lactose monohydrate and magnesium stearate) for a total weigh to of 378 mg. 189 mg of the stockpiled commercial powder (equivalent to 100 mg Atazanavir) was blended by tumbling in a glass vial with 100 mg of the spray-dried amorphous dispersion (SDD) of Compound II/EUDRAGIT L-100 (EL-100) where the Compound II:EL100 ratio was 1:1 (produced by Hovione FarmaCientia) and filled by hand into “0” hard gelatin capsules. Therefore, each hand-filled “0” hard gelatin capsule contained 100 mg ATV, […] of Compound II:EL100 (1:1) SDD and 89 mg of excipients. These capsules were dropped into 500 mL of simulated gastric fluid and the amounts of Compound II and ATV in the resulting suspension was determined by HPLC (see Table 1 and FIG. 1).

CYP3A = conditions: human liver microsomes, in vitro; cited from earlier work
[2] = Inherent anti-retroviral activity
[3] = Pharmacokinetic study in beagle dogs, oral dry powder in capsules; format: in vivo
Description: A pharmacokinetic study was performed in beagle dogs to evaluate the performance of the oral dosage formulation prepared in Example 1 above. […] Both plasma levels and duration of exposure was increased.
The plasma exposure of the compound of Formula II from Compound II:EL100 (1:1) SDD powder alone was compared to co-administration with Atazanavir powder (FIG. 3). The ratio of the AUCs from mean plasma concentrations was 2.5, but the differences among individual animal was not statistically significant. The apparent increase in mean Compound II exposure came mostly later in the time course, after 8 hours.

SMILES	% of maximal ATV Conc. ([1]; 0 min) [%]	% of maximal ATV Conc. ([1]; 5 min) [%]	% of maximal ATV Conc. ([1]; 10 min) [%]	% of maximal ATV Conc. ([1]; 15 min) [%]	% of maximal ATV Conc. ([1]; 20 min) [%]	% of maximal ATV Conc. ([1]; 25 min) [%]	% of maximal ATV Conc. ([1]; 30 min) [%]	metabolising enzyme (CYP3A)	% of maximal Compound II Conc. ([1]; 0 min) [%]	% of maximal Compound II Conc. ([1]; 5 min) [%]	% of maximal Compound II Conc. ([1]; 10 min) [%]	% of maximal Compound II Conc. ([1]; 15 min) [%]	% of maximal Compound II Conc. ([1]; 20 min) [%]	% of maximal Compound II Conc. ([1]; 25 min) [%]	% of maximal Compound II Conc. ([1]; 30 min) [%]	inherent anti-retroviral activity [2]	ratio of the AUCs from mean plasma concentrations of Compound II ([3]; 10 mg/kg Compound II from Compound II:EL100 (1:1) SDD with 20 mg/kg Atazanavir vs alone)	Cmax of Compound II, change on co-administration ([3]; Compound II:EL100 (1:1) SDD with Atazanavir vs alone)
COC(=O)N[C@H](C(=O)N[C@@H](Cc1ccccc1)[C@@H](O)CN(Cc1ccc(-c2ccccn2)cc1)NC(=O)[C@@H](NC(=O)OC)C(C)(C)C)C(C)(C)C.O=S(=O)(O)O [Atazanavir, Atazanavir sulfate, reference compound]	0	88.9	93.4	100.0	99.4	99.1	97.9	metabolized by CYP3A										
CO[C@H](CN(CC(C)C)S(=O)(=O)c1ccc2occc2c1)[C@H](Cc1ccccc1)NC(=O)OC(C)(C)C [Compound II]									0	27.6	61.9	54.5	88.2	89.8	100.0	no inherent anti-retroviral activity	2.5	slightly increased

Source: patent US20110189297A1, “STABLE SOLID ORAL DOSAGE CO-FORMULATIONS” (Sequicia Pharmaceuticals, priority 2008, published 2011)
